# In patent US20240099298A1, “BIOINSECTICIDAL COMPOSITIONS CONTAINING MONOTERPENES AND METHODS OF USE THEREOF” (priority 2017, published 2024):
# Where a name gives a salt, the structure may show the parent alone. Read-outs that look alike come from different tables or passages of the source. Marks after values point to notes of the source that are not given here.
# Experiments:
# [1] = test system: T. chilonis (parasitic wasp); conditions: non-target parasitic wasp, mortality after 15 minutes of exposure
# Source text: (§1) Insect Egg Parasitic Wasp (Natural Enemy). […] Both species were purchased from a commercial source. One- to two-day-old adults (after eclosion) were used for fumigation tests.
# (§2) Median Lethal Concentration Tests. […] The species tested included Thrips (M. usitatus), spider mite (T. cinnabarinus), melon fly (B. cucuribitae), cockroach (B. lateralis), housefly (M. domestica), mosquito (A. aegypti), parasitic wasp (T. chilonis) and fruit fly (Drosophila melanogaster). After being exposed to the test chemicals for one hour, adult Thrips, spider mites, and roaches were transferred to another flask. In addition to fresh water, adult Thrips, spider mites, and roaches were then respectively fed with cowpea, fresh blade of eggplant, and peanut oil via filter. […] Mortality of melon fly was observed after three hours of exposure.
# [2] = test system: Musca domestica (housefly); test: Median knockdown concentration (KC50) test, housefly; assay type: in vivo; conditions: for KC50 (fiducial limits): Musca domestica; for time within which the insects responded: houseflies
# Source text: (§3) All treatments and controls were in triplicate.
# (§4) Knockdown Activity of Monoterpenes.
# [3] = test system: A. japonicus (parasitic wasp); test: Median lethal time (LT50) test, parasitic wasp (natural enemy); conditions: non-target parasitic wasp
# Description: as §1
# Median Lethal Time (LT50) and Median Knockdown Concentration (KC50) Tests. Five species of adult insects or natural enemies were tested for LT50 values including melon fly (B. cucuribitae), red flour beetle (T. castaneum), Nitidulidae beetle (H. picinus), parasitic wasp (A. japonicus) and housefly (M. domestica). For each treatment and control, 20 insects at the developmental stages described above were placed individually without food in a 1-L wide-mouth glass bottle (height 19.5 cm, bottom diameter 10.5 cm, mouth i.d. 5.5 cm) containing pieces of tissue paper. […] Five different concentrations of the test chemicals were placed on pieces of cellulose-based qualitative filter paper. Each of the filter papers was placed in a bottle to have 5 appropriate concentrations in serial dilutions. DDVP was the positive control, and no chemical treatments were the negative control. All treatments and controls were in triplicate. Mortality was observed periodically in a 10-30 minute interval for 2 days or until all insects died. The death was defined as no movement when the insects were touched.
# [4] = test system: Aedes aegypti (mosquito); test: Median knockdown concentration (KC50) test, mosquito; assay type: in vivo
# Source text: as §3, §4
# [5] = test system: Musca domestica (Linnaeus) (housefly)
# Source text: as §2
# [6] = test system: Aedes aegypti (Linnaeus) (mosquito)
# Source text: as §2
# [7] = test system: Tetranychus cinnabarinus (Boisduval) (spider mites)
# Source text: as §2
# [8] = test system: Blatta lateralis (Walker) (cockroach)
# Source text: as §2
# [9] = test system: Bactrocera cucuribitae (Coquillett) (melon fly)
# Source text: as §2
# [10] = test system: Megalurothrips usitatus (Bagrall) (thrips); test: Median lethal concentration fumigation test, thrips; conditions: adult thrips, exposed one hour, mortality observed in 24 hours
# Source text: as §2
# [11] = test system: Drosophila melanogaster (fruit fly); test: Median lethal concentration fumigation test, fruit fly; assay type: in vivo; conditions: mortality after 280 minutes
# [12] = test system: T. castaneum (red flour beetle); test: Median lethal time (LT50) test, red flour beetle; assay type: in vivo, Tribolium castaneum
# Source text: as §3
# (§5) Toxicity of Monoterpenes as Fumigants. […] Therefore, to determine how fast the monoterpenes act as fumigants, it was necessary to determine their LT50 values for the target organisms.
# [13] = test system: B. cucuribitae (melon fly); test: Median lethal time (LT50) test, melon fly; assay type: in vivo, Bactrocera cucuribitae
# Source text: as §3, §5
# [14] = cited from earlier work
# [15] = test system: adult T. palmi; conditions: cited from earlier work
# [16] = test system: Megalurothrips usitatus (flower Thrips); conditions: for activity against flower Thrips in preliminary screening: adult M. usitatus, 24 hours of fumigation in 1-L flasks; for mortality: in vivo
# [17] = test system: M. domestica (housefly); test: Median lethal time (LT50) test, housefly; assay type: in vivo, Musca domestica
# Source text: as §3, §5
# [18] = test system: H. picinus (Nitidulid beetle); test: Median lethal time (LT50) test, Nitidulid beetle; assay type: in vivo, Haptoncus picinus
# Source text: as §3, §5
# [19] = test system: flower Thrips; test: Field test in cowpea fields, thrips; assay type: in vivo
# Description: (§6) Field Tests. […] Therefore, it was determined whether this compound could control Thrips in the field. Linalool was in 20-, 10- and 5.0-fold dilutions with edible peanut oil. The positive control was spinetoram (Dow AgroSciences) in 3000-fold dilution.
# (§7) The field experimental plots were 15 m^2 in size, in triplicate. A designated sprayer (Dia spray No. 3530, Japan Furlpla Co., Japan) was used to spray the solvent only negative control in this experiment. Grub density was calculated at every plot prior to application. During the experiments, the field was also infested with leafhoppers, so that the control efficacy of leafhoppers was also assessed. The number of adult Thrips and leafhoppers was assessed in the treatment and control areas at 1, 3, 5, 7, 14 and 21 days after application. The decline of the adult Thrips and leafhoppers was calculated to assess the control efficacy of linalool.
# Field Applications. To assess the use of monoterpenes in the field, linalool was tested for control of flower Thrips in cowpea fields. […] At 1 and 3 days after treatment, control efficacy respectively reached 98% and 100% for the 10-fold dilution (Table 15). By comparison, the positive control, a 3000-fold dilution of spinetoram, reached 70% and 94% at 1 and 3 days after treatment, respectively (Table 17).
# [20] = test system: leafhoppers, Cicadella viridi linne; test: Field test, leafhoppers; assay type: in vivo; conditions: Leafhopper
# Description: as §6, §7
# A 10-fold dilution of linalool was also the most efficacious application, compared to 5- and 20-fold dilutions, in controlling leafhoppers, Cicadella viridi linne (Hemiptera: Cicadellidae). At 7 and 14 days after treatment, the control efficacy of the 10-fold dilution of linalool reached 96% and 98%, respectively.
# [21] = adult housefly, exposed one hour, mortality in 24 hours
# [22] = adult mosquito, exposed 30 minutes, mortality in 24 hours
# [23] = cockroach second instar nymphs, exposed one hour
molecule,measurement,setting,value
"COP(=O)(OC)OC=C(Cl)Cl [DDVP 80%, 2,2-Dichlorovinyl dimethyl phosphate, reference compound]",LC90 (fiducial limits) against T. chilonis,[1],>3.75 µg/mL
same,KC50 (fiducial limits),[2]; 20 Minutes,>2.7 µg/mL
same,KC50 (fiducial limits),[2]; 30 Minutes,>2.7 µg/mL
same,LT50 (fiducial limits) against A. japonicus,[3],0.41 (0.07-0.49) hour
same,KC50 (fiducial limits),[4]; 30 Minutes,>0.081 µg/mL
same,LC90 (fiducial limits),[5]; [21],0.53 µg/mL
same,LC90 (fiducial limits),[6]; [22],0.0028 µg/mL
same,LC90 (fiducial limits),"[7]; spider mites, exposed one hour",0.80 µg/mL
same,LC90 (fiducial limits),[8]; [23],9.51 µg/mL
same,LC90 (fiducial limits),[9]; melon fly,0.0014 µg/mL
same,LC90 (fiducial limits),[10],1.85 µg/mL
same,LC90 (fiducial limits),[11],0.002 ng/mL
same,LT50 (fiducial limits),[12],2.70 h
same,LT50 (fiducial limits),[13],0.89 h
C=C[C@](C)(O)CCC=C(C)C [(−)-Linalool],Vp (Pa)/T (° C.),[14]; T 23.5 °C,21.20/23.5 Pa
"CC12CCC(CC1=O)C2(C)C (racemic) [(±)-camphor, reference compound]","LC50, fumigation toxicity",[15],9.7 µg/mL
C=C(C)[C@H]1CC=C(C)CC1 [(+)-Limonene],Vp (Pa)/T (° C.),[14]; T 25 °C,263.97/25 Pa
same,activity against flower Thrips in preliminary screening,[16],not active
C=CCc1ccc(OC)cc1 [Estragole],LC50 (fiducial limits) against T. chilonis,[1],1.64 µg/mL
same,LC90 (fiducial limits) against T. chilonis,[1],34.9 µg/mL
same,KC50 (fiducial limits),[2]; 20 Minutes,>502 µg/mL
same,KC50 (fiducial limits),[2]; 30 Minutes,>243 µg/mL
same,LT50 (fiducial limits) against A. japonicus,[3],1.19 (1.02-1.37) hour
same,KC50 (fiducial limits),[4]; 10 Minutes,>8.1 µg/mL
same,KC50 (fiducial limits),[4]; 20 Minutes,2.32 µg/mL
same,KC50 (fiducial limits),[4]; 30 Minutes,>8.1 µg/mL
same,LT50 (fiducial limits),[17],1.04 h
same,LT50 (fiducial limits),[18],0.60 h
same,LC90 (fiducial limits),[5]; [21],15.3 µg/mL
same,LC50 (fiducial limits),[5]; in vivo,5.89 µg/mL
same,LC90 (fiducial limits),[6]; [22],0.91 µg/mL
same,LC50 (fiducial limits),[6]; in vivo,0.25 µg/mL
same,LC50 (fiducial limits),[7]; in vivo,3.28 µg/mL
same,LC90 (fiducial limits),"[7]; spider mites, exposed one hour",21.0 µg/mL
same,LC90 (fiducial limits),[8]; [23],15.3 µg/mL
same,LC50 (fiducial limits),[8]; in vivo,24.1 µg/mL
same,LC50 (fiducial limits),[9]; in vivo,483 µg/mL
same,LC90 (fiducial limits),[9]; melon fly,953 µg/mL
same,LC50 (fiducial limits),[10],0.24 µg/mL
same,LC90 (fiducial limits),[10],1.29 µg/mL
same,LC50 (fiducial limits),[10]; listed as estragole,0.241 µg/mL
same,activity against flower Thrips in preliminary screening,[16],exhibit insecticidal activity
same,LT50 (fiducial limits),[12],8.23 h
same,LT50 (fiducial limits),[13],1.69 h
Spinetoram,Control Efficacy,[19]; 1 DAT,70%
same,Control Efficacy,[19]; 3 DAT,94%
same,Control Efficacy,[19]; 5 DAT,37%
same,Control Efficacy,[19]; 7 DAT,33%
same,Control Efficacy,[19]; 14 DAT,62%
same,Control Efficacy,[19]; 21 DAT,0%
same,Control Efficacy,[20]; 1 DAT,68%
same,Control Efficacy,[20]; 3 DAT,87%
same,Control Efficacy,[20]; 5 DAT,36%
same,Control Efficacy,[20]; 7 DAT,49%
same,Control Efficacy,[20]; 14 DAT,66%
same,Control Efficacy,[20]; 21 DAT,25%
CC(C)=O [Acetone],LT50 (fiducial limits) against A. japonicus,[3],>48^a hour
same,LT50 (fiducial limits),[17],>48^a ^ hour
same,LT50 (fiducial limits),[18],>48^a ^ hour
same,mortality,[16],No mortality
same,LT50 (fiducial limits),[12],>48^a ^ hour
same,LT50 (fiducial limits),[13],>48^a ^ hour
"CC12CCC(CC1)C(C)(C)O2 [1,8-Cineole]",Vp (Pa)/T (° C.),[14]; T 25 °C,253.31/25 Pa
same,"LC50, fumigation toxicity",[15],16.7 µg/mL
ClC(Cl)Cl [Chloroform],LT50 (fiducial limits) against A. japonicus,[3],>48^a hour
same,LT50 (fiducial limits),[17],>48^a ^ hour
same,LT50 (fiducial limits),[18],>48^a ^ hour
same,mortality,[16],No mortality
same,LT50 (fiducial limits),[12],>48^a ^ hour
same,LT50 (fiducial limits),[13],>48^a ^ hour
Cc1ccc(C(C)C)cc1O [Carvacrol],LC50 (fiducial limits) against T. chilonis,[1],826 µg/mL
same,LC90 (fiducial limits) against T. chilonis,[1],7.08 µg/mL
same,KC50 (fiducial limits),[2]; 10 Minutes,>7600 µg/mL
same,KC50 (fiducial limits),[2]; 20 Minutes,>243 µg/mL
same,KC50 (fiducial limits),[2]; 30 Minutes,>243 µg/mL
same,time within which the insects responded,[2],≤ 10 min
same,LT50 (fiducial limits) against A. japonicus,[3],3.32 (2.05-7220) hour
same,KC50 (fiducial limits),[4]; 10 Minutes,>243 µg/mL
same,KC50 (fiducial limits),[4]; 20 Minutes,6.0 µg/mL
same,KC50 (fiducial limits),[4]; 30 Minutes,>243 µg/mL
same,LT50 (fiducial limits),[17],2.30 h
same,LT50 (fiducial limits),[18],1.94 h
same,LC50 (fiducial limits),[5]; [21],>243 µg/mL
same,LC90 (fiducial limits),[5]; [21],>243 µg/mL
same,LC50 (fiducial limits),[6]; [22],0.77 µg/mL
same,LC90 (fiducial limits),[6]; [22],3.92 µg/mL
same,LC50 (fiducial limits),"[7]; spider mites, exposed one hour",37.5 µg/mL
same,LC90 (fiducial limits),"[7]; spider mites, exposed one hour",510 µg/mL
same,LC50 (fiducial limits),[8]; [23],84.5 µg/mL
same,LC90 (fiducial limits),[8]; [23],118 µg/mL
same,LC50 (fiducial limits),[9]; melon fly,>243 µg/mL
same,LC90 (fiducial limits),[9]; melon fly,>243 µg/mL
same,Vp (Pa)/T (° C.),[14]; T 25 °C,3.99/25 Pa
same,LC50 (fiducial limits),[10],>19.2 µg/mL
same,LC90 (fiducial limits),[10],>19.2 µg/mL
same,activity against flower Thrips in preliminary screening,[16],exhibit insecticidal activity
same,LT50 (fiducial limits),[12],9.95 h
same,LT50 (fiducial limits),[13],2.49 h
"CCOC=O [ethyl formate, reference compound]",LC50,"[16]; flower Thrips, positive fumigant control",greater than 9.2 μg/cm^3
C=C(C)[C@@H]1CC=C(C)CC1 [(−)-Limonene],Vp (Pa)/T (° C.),[14]; T 25 °C,206.65/25 Pa
same,activity against flower Thrips in preliminary screening,[16],not active
C/C=C/c1ccc(OC)cc1 [trans-Anethole],KC50 (fiducial limits),[2]; 30 Minutes,>243 µg/mL
same,time within which the insects responded,[2],≤ 30 min
same,LT50 (fiducial limits) against A. japonicus,[3],0.933 (0.73-1.11) hour
same,KC50 (fiducial limits),[4]; 10 Minutes,>8.1 µg/mL
same,KC50 (fiducial limits),[4]; 20 Minutes,4.84 µg/mL
same,KC50 (fiducial limits),[4]; 30 Minutes,4.05 µg/mL
same,LT50 (fiducial limits),[17],2.01 h
same,LT50 (fiducial limits),[18],1.07 h
same,activity against flower Thrips in preliminary screening,[16],exhibit insecticidal activity
same,LT50 (fiducial limits),[12],7.97 h
same,LT50 (fiducial limits),[13],2.28 h
C=CC(=C)CCC=C(C)C [Myrcene],Vp (Pa)/T (° C.),[14]; T 25 °C,278.64/25 Pa
same,activity against flower Thrips in preliminary screening,[16],not active
